Test results: ChEMBL document CHEMBL6109105, “Design, synthesis and antibacterial evaluation of oxazolidinone derivatives containing N-methylglycyl or quaternary ammonium salts” (Bioorg Med Chem, 2025)
In brackets after ≈: the same amount, converted by molar mass. Activity calls are given as the source filed them. The calls are words filed in the database; no cut-off is given here.

Experiments:
Cell membrane [1] = test: Induction of cell membrane damage in Enterococcus faecalis assessed as nucleic acid leakage at 8 times of MIC incubated for 2 hrs by fluorescence spectrophotometric analysis; format: subcellular
HeLa [2] = test: Cytotoxicity against human HeLa cells assessed as increase in fluorescence intensity at 1 to 16 microg/ml by vesicle leakage assay; format: toxicity, cell-based; conditions: dose 1-16 µg/ml
[3] = Hemolytic activity in sheep RBC assessed as hemolysis at 1280 microg/ml incubated for 1 hrs by microplate reader analysis relative to control; format: toxicity, cell-based, Ovis aries, Erythrocyte; conditions: sheep red blood cells, dose 1280 µg/ml, read-out: Activity
Enterococcus faecalis [4] = test: Antibacterial activity against Enterococcus faecalis assessed as inhibition of bacterial growth incubated for 16 to 18 hrs in presence of 50% MHB by dilution method; format: functional; conditions: time 16-18 hrs
[5] = system: Stenotrophomonas maltophilia; test: Antibacterial activity against Stenotrophomonas maltophilia ATCC 17808 assessed as inhibition of bacterial growth incubated for 16 to 18 hrs by microbroth dilution method; format: functional; conditions: time 16-18 hrs, read-out: MIC100
Enterococcus faecalis [6] = test: Antibacterial activity against Enterococcus faecalis assessed as inhibition of bacterial growth at 0.5 times of MIC incubated for 15 days by bacterial resistance development assay; format: functional, organism-based; conditions: time 15.0 day
Enterococcus faecalis [7] = test: Antibacterial activity against Enterococcus faecalis assessed as inhibition of bacterial growth incubated for 16 to 18 hrs in presence of 50% serum by dilution method; format: functional; conditions: time 16-18 hrs
Escherichia coli = test: Antibacterial activity against Escherichia coli ATCC 25922 assessed as inhibition of bacterial growth incubated for 16 to 18 hrs by microbroth dilution method; format: functional; conditions: time 16-18 hrs, read-out: MIC100
Enterococcus faecalis [8] = test: Disruption of preformed biofilm in Enterococcus faecalis assessed as reduction in bacterial density at 32 times of MIC measured after 24 hrs by SYTO 9 staining based confocal laser scanning microscopic analysis; format: functional, organism-based
Enterococcus faecalis [9] = test: Disruption of preformed biofilm in Enterococcus faecalis assessed as bacterial survival rate at 16 times of MIC measured after 24 hrs relative to control; format: functional
Enterococcus faecalis [10] = test: Post-antibiotic affect in Enterococcus faecalis assessed as reduction in growth rate at 16 times of MIC measured after 1 hrs; format: functional, organism-based
Enterococcus faecalis [11] = test: Antibacterial activity against Enterococcus faecalis assessed as post-antibiotic effect at 8 times of MIC measured up to 8 hrs; format: functional
[12] = Selectivity ratio of MIC for antibacterial activity against Enterococcus faecalis assessed as inhibition of bacterial growth measured after 3 hrs in presence of 50% plasma to MIC for antibacterial activity against Enterococcus faecalis assessed as inhibition of bacterial growth assessed as inhibition of bacterial growth measured after 16 to 18 hrs; format: functional
Enterococcus faecalis [13] = test: Antibacterial activity against Enterococcus faecalis assessed as inhibition of bacterial growth incubated for 16 to 18 hrs in presence of 50% plasma by dilution method; format: functional; conditions: time 16-18 hrs
Enterococcus faecalis [14] = test: Antibacterial activity against Enterococcus faecalis ATCC 29212 assessed as inhibition of bacterial growth incubated for 16 to 18 hrs by microbroth dilution method; format: functional; conditions: time 16-18 hrs, read-out: MIC100
HeLa [15] = test: Cytotoxicity against human HeLa cells assessed as increase in red fluorescence at 32 microg/ml incubated for 24 hrs by calcein-AM/PI staining based fluorescence microscopic analysis; format: toxicity, cell-based; conditions: dose 32 µg/ml
Enterococcus faecalis [16] = test: Post-antibiotic affect in Enterococcus faecalis assessed as reduction in growth rate at 8 times of MIC measured after 1 hrs; format: functional, organism-based
Enterococcus faecalis [17] = test: Induction of ROS-dependent oxidative stress in Enterococcus faecalis assessed as decrease in GSH activity at 32 microg/ml (reference value: 1.34 %); format: functional; design: scale not given: the % may be the effect or the level left; conditions: dose 32 µg/ml
Cell membrane [18] = test: Induction of cytoplasmic membrane depolarization in Enterococcus faecalis assessed as increase in fluorescence intensity by DiSC35 dye based microplate reader analysis
Enterococcus faecalis [19] = test: Disruption of preformed biofilm in Enterococcus faecalis assessed as bacterial survival rate at 32 times of MIC measured after 24 hrs relative to control; format: functional
Cell membrane [20] = test: Induction of cytoplasmic membrane permeability in Enterococcus faecalis assessed as increase in fluorescence intensity at 8 times of MIC by PI staining based analysis
[21] = Hemolytic activity in sheep RBC assessed as hemolysis incubated for 1 hrs by microplate reader analysis; format: toxicity, cell-based, Ovis aries, Erythrocyte; conditions: sheep red blood cells
Enterococcus faecalis [22] = test: Antibacterial activity against Enterococcus faecalis assessed as post-antibiotic effect at 16 times of MIC measured up to 8 hrs; format: functional
Enterococcus faecalis [23] = test: Drug resistance, ratio of MIC for Enterococcus faecalis measured after 5 days to MIC for Enterococcus faecalis measured after 16 to 18 hrs; format: functional
Staphylococcus aureus = test: Antibacterial activity against Staphylococcus aureus ATCC 29213 assessed as inhibition of bacterial growth incubated for 16 to 18 hrs by microbroth dilution method; format: functional; conditions: time 16-18 hrs, read-out: MIC100
Enterococcus faecalis [24] = test: Bactericidal activity against Enterococcus faecalis assessed as reduction in bacterial count at 4 times of MIC measured within 10 hrs by time-kill kinetics analysis; format: functional
[25] = Cytotoxicity against human HeLa cells assessed as cell viability at 64 microg/ml incubated for 24 hrs by CCK8 assay relative to control; format: toxicity, cell-based; conditions: at 64 µg/mL, read-out: Activity
Enterococcus faecalis [26] = test: Antibacterial activity against Enterococcus faecalis assessed as inhibition of bacterial growth incubated for 3 hrs in presence of 50% MHB by dilution method; format: functional, organism-based
Cell membrane [27] = test: Induction of cell membrane damage in Enterococcus faecalis assessed as nucleic acid leakage at 32 times of MIC incubated for 2 hrs by fluorescence spectrophotometric analysis; format: subcellular
Cell membrane [28] = test: Induction of cell membrane damage in Enterococcus faecalis assessed as nucleic acid leakage at 16 times of MIC incubated for 2 hrs by fluorescence spectrophotometric analysis; format: subcellular
Enterococcus faecalis [29] = test: Induction of ROS accumulation in Enterococcus faecalis assessed as increase in fluorescence intensity at 8 times of MIC incubated for 30 mins in presence of NAC by DCFH-DA staining based microplate reader analysis; format: functional, organism-based
Enterococcus faecalis [30] = test: Antipersister-activity against in Enterococcus faecalis assessed as log reduction in persistent cells at 32 times of MIC preincubated with 100 times of MIC of rifampicin for 24 hrs followed by compound addition and measured after 8 hrs by drop plate counting method; format: functional
Enterococcus faecalis [31] = test: Antibacterial activity against Enterococcus faecalis assessed as inhibition of bacterial growth incubated for 3 hrs in presence of 50% plasma by dilution method; format: functional
Enterococcus faecalis [32] = test: Induction of ROS accumulation in Enterococcus faecalis assessed as fluorescence intensity at 8 times of MIC incubated for 30 mins by DCFH-DA staining based microplate reader analysis; format: functional; conditions: 0.5 h
Enterococcus faecalis [33] = test: Drug resistance, ratio of MIC for Enterococcus faecalis measured after 15 days to MIC for Enterococcus faecalis measured after 16 to 18 hrs; format: functional

## CC(=O)NC[C@H]1CN(c2ccc(N3CCN(C(=O)CN(C)Cc4ccc([N+](=O)[O-])cc4)CC3)c(F)c2)C(=O)O1
Cell membrane [1]
  Activity: Active; Small Amount Of Leakage Observed
HeLa [2]
  Activity: Non-toxic
[3]
  hemolysis at 1 h, 1280 microg/ml: 3.19%
Enterococcus faecalis [4]
  MIC: 2 µg/mL
[5]
  MIC: > 128 µg/mL
Enterococcus faecalis [6]
  Activity: Active
Enterococcus faecalis [7]
  MIC: 4 µg/mL
Escherichia coli
  MIC: > 128 µg/mL
Enterococcus faecalis [8]
  Activity: Active
Enterococcus faecalis [9]
  Activity: 0.3%
Enterococcus faecalis [10]
  Activity: Active
Enterococcus faecalis [11]
  PAE: 0.44 h
[12]
  Selectivity ratio: 4
Enterococcus faecalis [13]
  MIC: 2 µg/mL
Enterococcus faecalis [14]
  MIC: 2 µg/mL (≈ 3.69 µM)
HeLa [15]
  Activity: Non-toxic
Enterococcus faecalis [16]
  Activity: Active
Enterococcus faecalis [17]
  Activity: 45.89%
Cell membrane [18]
  Activity: inactive
Enterococcus faecalis [19]
  Activity: 0.04%
Cell membrane [20]
  Activity: inactive
[21]
  HC50 at 1 h: > 1280 µg/mL
Enterococcus faecalis [22]
  PAE: 5.13 h
Enterococcus faecalis [23]
  Ratio: 2
Staphylococcus aureus
  MIC: 8 µg/mL (≈ 14.7 µM)
Enterococcus faecalis [24]
  Activity: ~1 10^4CFU/ml
[25]
  viability at 24 h, 64 microg/ml: 59.8%
Enterococcus faecalis [26]
  Activity: Active
Cell membrane [27]
  Activity: Active; Small Amount Of Leakage Observed
Cell membrane [28]
  Activity: Active; Small Amount Of Leakage Observed
Enterococcus faecalis [29]
  Activity: inactive
Enterococcus faecalis [30]
  Activity: 3.71 log10CFU/ml
Enterococcus faecalis [31]
  MIC: 8 µg/mL
Enterococcus faecalis [32]
  Flu intensity: 280 a.u.

## CCn1cc(C(=O)O)c(=O)c2cc(F)c(N3CCNCC3)cc21 [NORFLOXACIN]
Enterococcus faecalis [33]
  Ratio: 4
